Measured values from paper PMC10187937, “Streptothricin F is a bactericidal antibiotic effective against highly drug-resistant gram-negative bacteria that interacts with the 30S subunit of the 70S ribosome” (PLOS Biology, 2023).
In brackets after ≈: the same amount, converted by molar mass. Like-named read-outs stand apart in the source and are kept apart here.

How the values were obtained:
[1] = biological target: T1, rProtein L28 (50S, near the E-site of the A. baumannii 70S ribosome) (Acinetobacter baumannii, UniProt B7I4T0); experiment: cryo-EM structure of complex; format: binding; settings: 0.1 uM ribosome, 100 uM ligand (not seen at 10 uM); second site, 50S near E-site; presumably nonspecific per authors
T1 construct: gene rpmB; native 50S ribosomal protein within purified 70S ribosome; site near the E-site, contact at H20

[2] = system: T2, Klebsiella pneumoniae CDC 636; experiment: microbe, parasite or virus in culture; design: broth microdilution minimal inhibitory concentration against multidrug-resistant clinical isolates; settings: CDC636, NDM
T2 construct: CDC 636
Excerpt: (§1) Using broth microdilution minimal inhibitory concentration (MIC) testing, we determined the MIC of S-F, S-D, and nourseothricin for a large group of multidrug-resistant CRE. These included strains expressing metallo- and/or serine carbapenemases and the pandrug-resistant, NDM-1–expressing Klebsiella pneumoniae Nevada strain, AR-0663 [18]. For these CRE (n = 39), MIC50 and MIC90 for S-F, S-D, and nourseothricin, respectively, were 2 and 4 (range 1 to 4) μM; 0.25 and 0.5 (range 0.25 to 2) μM; and 0.5 and 1 (range 0.25 to 2) μM. The average MIC was 5.6-fold greater for S-F than for S-D and 4.2-fold greater for S-F than for nourseothricin. […] CRE isolates were from the FDA-CDC Antimicrobial Resistance Isolate Bank (AR-Bank) including the Nevada Strain (AR-0636) and the BIDMC clinical collection sequenced as part of the CRE genomics project. A. baumannii isolates were from the AR-Bank and the Multidrug Resistant Organism Repository and Surveillance Network (MRSN) at the Walter Reed Army Institute of Research (WRAIR). Strains are listed in S3 Table. The single ribosomal operon strain, E. coli SQ110, was from the Coli Genetics Stock Center (Yale University, New Haven, CT) and was originally described by Squire and colleagues.

[3] = system: T3, Acinetobacter baumannii FDA-CDC 309; experiment: microbe, parasite or virus in culture; design: broth microdilution minimal inhibitory concentration against multidrug-resistant clinical isolates
T3 construct: FDA-CDC 309
Excerpt: as §1

[4] = system: T4, Escherichia coli FDA-CDC 137; experiment: microbe, parasite or virus in culture; design: broth microdilution minimal inhibitory concentration against multidrug-resistant clinical isolates
T4 construct: FDA-CDC 137
Excerpt: as §1

[5] = system: T5, Escherichia coli FDA-CDC 128; experiment: microbe, parasite or virus in culture; design: broth microdilution minimal inhibitory concentration against multidrug-resistant clinical isolates
T5 construct: FDA-CDC 128
Excerpt: as §1

[6] = system: T6, Escherichia coli FDA-CDC 118; experiment: microbe, parasite or virus in culture; design: broth microdilution minimal inhibitory concentration against multidrug-resistant clinical isolates; settings: FDACDC118, NDM
T6 construct: FDA-CDC 118
Excerpt: as §1

[7] = system: T7, Acinetobacter baumannii FDA-CDC 310; experiment: microbe, parasite or virus in culture; design: broth microdilution minimal inhibitory concentration against multidrug-resistant clinical isolates
T7 construct: FDA-CDC 310
Excerpt: as §1

[8] = system: T8, Acinetobacter baumannii FDA-CDC 308; experiment: microbe, parasite or virus in culture; design: broth microdilution minimal inhibitory concentration against multidrug-resistant clinical isolates
T8 construct: FDA-CDC 308
Excerpt: as §1

[9] = system: T9, Escherichia coli FDA-CDC 149; experiment: microbe, parasite or virus in culture; design: broth microdilution minimal inhibitory concentration against multidrug-resistant clinical isolates; settings: FDACDC149, NDM
T9 construct: FDA-CDC 149
Excerpt: as §1

[10] = system: T10, Escherichia coli FDA-CDC 119; experiment: microbe, parasite or virus in culture; design: broth microdilution minimal inhibitory concentration against multidrug-resistant clinical isolates; settings: FDACDC119, NDM
T10 construct: FDA-CDC 119
Excerpt: as §1

[11] = system: T11, Enterobacter aerogenes FDA-CDC 161; experiment: microbe, parasite or virus in culture; design: broth microdilution minimal inhibitory concentration against multidrug-resistant clinical isolates; settings: Klebsiella aerogenes, FDACDC161, IMP-4
T11 construct: FDA-CDC 161
Excerpt: as §1

[12] = system: T12, Klebsiella pneumoniae FDA-CDC 34; experiment: microbe, parasite or virus in culture; design: broth microdilution minimal inhibitory concentration against multidrug-resistant clinical isolates
T12 construct: FDA-CDC 34
Excerpt: as §1

[13] = system: T13, Acinetobacter baumannii FDA-CDC 311; experiment: microbe, parasite or virus in culture; design: broth microdilution minimal inhibitory concentration against multidrug-resistant clinical isolates
T13 construct: FDA-CDC 311
Excerpt: as §1

Escherichia coli BIDMC 3 = system: T14, Escherichia coli BIDMC 3; design: broth microdilution minimal inhibitory concentration against multidrug-resistant clinical isolates; settings: KPC-2; inhibitor
T14 construct: BIDMC 3
Excerpt: as §1

[14] = system: T15, Klebsiella pneumoniae BIDMC 2; design: broth microdilution minimal inhibitory concentration against multidrug-resistant clinical isolates; settings: KPC-3; inhibitor
T15 construct: BIDMC 2
Excerpt: as §1

[15] = system: T16, Klebsiella pneumoniae BIDMC 5; design: broth microdilution minimal inhibitory concentration against multidrug-resistant clinical isolates; settings: KPC-3; inhibitor
T16 construct: BIDMC 5
Excerpt: as §1

[16] = system: T17, Escherichia coli BIDMC 15; design: broth microdilution minimal inhibitory concentration against multidrug-resistant clinical isolates; settings: KPC-2; inhibitor
T17 construct: BIDMC 15
Excerpt: as §1

Escherichia coli BIDMC 9 = system: T18, Escherichia coli BIDMC 9; design: broth microdilution minimal inhibitory concentration against multidrug-resistant clinical isolates; settings: KPC-2; inhibitor
T18 construct: BIDMC 9
Excerpt: as §1

[17] = system: T19, Klebsiella pneumoniae BIDMC 7; design: broth microdilution minimal inhibitory concentration against multidrug-resistant clinical isolates; settings: KPC-3; inhibitor
T19 construct: BIDMC 7
Excerpt: as §1

[18] = system: T20, Klebsiella pneumoniae FDA-CDC 117; design: broth microdilution minimal inhibitory concentration against multidrug-resistant clinical isolates; settings: KPC-3; inhibitor
T20 construct: FDA-CDC 117
Excerpt: as §1

Escherichia coli BIDMC 6 = system: T21, Escherichia coli BIDMC 6; design: broth microdilution minimal inhibitory concentration against multidrug-resistant clinical isolates; settings: KPC-2; inhibitor
T21 construct: BIDMC 6
Excerpt: as §1

[19] = system: T22, Klebsiella pneumoniae BIDMC 11; design: broth microdilution minimal inhibitory concentration against multidrug-resistant clinical isolates; settings: KPC-4; inhibitor
T22 construct: BIDMC 11
Excerpt: as §1

[20] = system: T23, Klebsiella oxytoca FDA-CDC 147; design: broth microdilution minimal inhibitory concentration against multidrug-resistant clinical isolates; settings: KPC; inhibitor
T23 construct: FDA-CDC 147
Excerpt: as §1

[21] = system: T24, Enterobacter cloacae FDA-CDC 136; design: broth microdilution minimal inhibitory concentration against multidrug-resistant clinical isolates; settings: KPC; inhibitor
T24 construct: FDA-CDC 136
Excerpt: as §1

[22] = system: T25, Klebsiella pneumoniae BIDMC 10; design: broth microdilution minimal inhibitory concentration against multidrug-resistant clinical isolates; settings: KPC-3; inhibitor
T25 construct: BIDMC 10
Excerpt: as §1

[23] = system: T26, Enterobacter cloacae BIDMC 8; design: broth microdilution minimal inhibitory concentration against multidrug-resistant clinical isolates; settings: KPC-3; inhibitor
T26 construct: BIDMC 8
Excerpt: as §1

[24] = system: T27, Escherichia coli BIDMC 17; design: broth microdilution minimal inhibitory concentration against multidrug-resistant clinical isolates; settings: KPC-2; inhibitor
T27 construct: BIDMC 17
Excerpt: as §1

[25] = system: T28, Klebsiella pneumoniae BIDMC 4; design: broth microdilution minimal inhibitory concentration against multidrug-resistant clinical isolates; settings: KPC-3; inhibitor
T28 construct: BIDMC 4
Excerpt: as §1

[26] = system: T29, Klebsiella pneumoniae BIDMC 1; design: broth microdilution minimal inhibitory concentration against multidrug-resistant clinical isolates; settings: KPC-3; inhibitor
T29 construct: BIDMC 1
Excerpt: as §1

T1 sequence (B7I4T0 whole entry): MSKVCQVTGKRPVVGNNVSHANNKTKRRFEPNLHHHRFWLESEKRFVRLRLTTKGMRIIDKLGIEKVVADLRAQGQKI

## NCCC[C@H](N)CC(=O)N[C@@H]1[C@H](O)[C@@H](OC(N)=O)[C@@H](CO)O[C@H]1N=C1N[C@@H]2[C@H](O)CNC(=O)[C@H]2N1 [S-F, streptothricin F]
[1]
  cryo-EM structure of 70S complex: S-F and S-D overlap at this site, interacting with H20 of rProtein L28
[2]; read-out: S-F MIC
  MIC: 1 µM (≈ 0.503 µg/mL)
[3]; FDACDC309, OXA-23, OXA-82, read-out: S-F MIC
  MIC: 8 µM (≈ 4.02 µg/mL)
[4]; FDACDC137, NDM-6, read-out: S-F MIC
  MIC: 2 µM (≈ 1.01 µg/mL)
[5]; FDACDC128, NDM-1, read-out: S-F MIC
  MIC: 4 µM (≈ 2.01 µg/mL)
[6]; read-out: S-F MIC
  MIC: 4 µM (≈ 2.01 µg/mL)
[7]; FDACDC310, OXA-23, OXA-82, read-out: S-F MIC
  MIC: 8 µM (≈ 4.02 µg/mL)
[8]; FDACDC308, OXA-71, read-out: S-F MIC
  MIC: 1 µM (≈ 0.503 µg/mL)
[9]; read-out: S-F MIC
  MIC: 4 µM (≈ 2.01 µg/mL)
[10]; read-out: S-F MIC
  MIC: 4 µM (≈ 2.01 µg/mL)
[11]; read-out: S-F MIC
  MIC: 2 µM (≈ 1.01 µg/mL)
[12]; FDACDC34, IMP-4, read-out: S-F MIC
  MIC: 2 µM (≈ 1.01 µg/mL)
[13]; FDACDC311, OXA-23, OXA-82, read-out: S-F MIC
  MIC: 8 µM (≈ 4.02 µg/mL)
Escherichia coli BIDMC 3
  S-F MIC: 4 µM
[14]
  S-F MIC: 4 µM
[15]
  S-F MIC: 2 µM
[16]
  S-F MIC: 2 µM
Escherichia coli BIDMC 9
  S-F MIC: 4 µM
[17]
  S-F MIC: 2 µM
[18]
  S-F MIC: 1 µM
Escherichia coli BIDMC 6
  S-F MIC: 2 µM
[19]
  S-F MIC: 2 µM
[20]
  S-F MIC: 2 µM
[21]
  S-F MIC: 2 µM
[22]
  S-F MIC: 2 µM
[23]
  S-F MIC: 4 µM
[24]
  S-F MIC: 2 µM
[25]
  S-F MIC: 2 µM
[26]
  S-F MIC: 2 µM

## NCCC[C@H](N)CC(=O)NCCC[C@H](N)CC(=O)NCCC[C@H](N)CC(=O)N[C@@H]1[C@H](O)[C@@H](OC(N)=O)[C@@H](CO)O[C@H]1NC1=N[C@@H]2C(=O)NC[C@@H](O)[C@H]2N1 [S-D, streptothricin D]
[2]; read-out: S-D MIC
  MIC: 0.25 µM (≈ 0.19 µg/mL)
[3]; FDACDC309, OXA-23, OXA-82, read-out: S-D MIC
  MIC: 2 µM (≈ 1.52 µg/mL)
[4]; FDACDC137, NDM-6, read-out: S-D MIC
  MIC: 0.5 µM (≈ 0.379 µg/mL)
[5]; FDACDC128, NDM-1, read-out: S-D MIC
  MIC: 1 µM (≈ 0.759 µg/mL)
[6]; read-out: S-D MIC
  MIC: 1 µM (≈ 0.759 µg/mL)
[7]; FDACDC310, OXA-23, OXA-82, read-out: S-D MIC
  MIC: 2 µM (≈ 1.52 µg/mL)
[8]; FDACDC308, OXA-71, read-out: S-D MIC
  MIC: 0.25 µM (≈ 0.19 µg/mL)
[9]; read-out: S-D MIC
  MIC: 0.5 µM (≈ 0.379 µg/mL)
[10]; read-out: S-D MIC
  MIC: 0.5 µM (≈ 0.379 µg/mL)
[11]; read-out: S-D MIC
  MIC: 0.5 µM (≈ 0.379 µg/mL)
[12]; FDACDC34, IMP-4, read-out: S-D MIC
  MIC: 0.25 µM (≈ 0.19 µg/mL)
[13]; FDACDC311, OXA-23, OXA-82, read-out: S-D MIC
  MIC: 2 µM (≈ 1.52 µg/mL)
Escherichia coli BIDMC 3
  S-D MIC: 0.5 µM
[14]
  S-D MIC: 0.25 µM
[15]
  S-D MIC: 0.25 µM
[16]
  S-D MIC: 0.5 µM
Escherichia coli BIDMC 9
  S-D MIC: 0.5 µM
[17]
  S-D MIC: 0.25 µM
[18]
  S-D MIC: 0.25 µM
Escherichia coli BIDMC 6
  S-D MIC: 0.5 µM
[19]
  S-D MIC: 0.25 µM
[20]
  S-D MIC: 0.25 µM
[21]
  S-D MIC: 0.5 µM
[22]
  S-D MIC: 0.25 µM
[23]
  S-D MIC: 0.25 µM
[24]
  S-D MIC: 0.5 µM
[25]
  S-D MIC: 0.25 µM
[26]
  S-D MIC: 0.25 µM
